For 7 compounds, Activity results are on record in ChEMBL document CHEMBL3992552, “Mechanisms of action and structure-activity relationships of cytotoxic flavokawain derivatives” (Bioorg Med Chem, 2017).

Assay type in all cases: functional
The subject of assay [1] is Huh-7. As to the kind of experiment: Cell cycle arrest in human HuH7 cells assessed as accumulation at G1/S phase by Hoechst staining based fluorescence assay.
The subject of another assay is HaCaT. As to the kind of experiment: Cell cycle arrest in human HaCaT cells assessed as accumulation at G1/S phase by Hoechst staining based fluorescence assay.
The subject of assay [2] is Huh-7. As to the kind of experiment: Cell cycle arrest in human HuH7 cells assessed as accumulation at M phase by Hoechst staining based fluorescence assay.
The next assay has as its system PC-3. As to the kind of experiment: Cell cycle arrest in human PC3 cells assessed as accumulation at G1/S phase by Hoechst staining based fluorescence assay.
Assay [3] deals with HCT-116. As to the kind of experiment: Cell cycle arrest in human HCT116 cells harboring wild-type p53 assessed as accumulation at M phase at 12 uM measured after 48 hrs by Hoechst staining based fluorescence assay (reference value: 2.3 to […]).
The test system of assay [4] is HCT-116. As to the kind of experiment: Cell cycle arrest in human HCT116 cells harboring wild-type p53 assessed as accumulation at M phase at 24 uM measured after 48 hrs by Hoechst staining based fluorescence assay (reference value: 2.3 to […]).
Assay [5] deals with HCT-116. As to the kind of experiment: Cell cycle arrest in human HCT116 cells harboring wild-type p53 assessed as accumulation at S phase at 12 uM measured after 48 hrs by Hoechst/BrdU staining based fluorescence assay (reference value: 68%).
The subject of assay [6] is HCT-116. As to the kind of experiment: Cell cycle arrest in human HCT116 cells harboring wild-type p53 assessed as accumulation at S phase at 24 uM measured after 48 hrs by Hoechst/BrdU staining based fluorescence assay (reference value: 68%).

SMILES strings stand for the structures. Calls of active or inactive are those of the source. No cut-off for these calls is given here.

Take `COc1cccc(/C=C/C(=O)c2c(O)cc(OC)cc2OC)c1`: the outcome in the assay on Huh-7 [1] and in the assay on HaCaT was Active.

Regarding `COc1cc(OC)c(C(=O)/C=C/c2ccc(F)cc2)c(OC)c1`, the outcome in the assay on Huh-7 [2] was Active.

Regarding `COc1cc(OC)c(C(=O)/C=C/c2ccc(Br)cc2)c(OC)c1`, in the assay on Huh-7 [2], the outcome was Active.

As to `COc1cc(O)c(C(=O)/C=C/c2ccccc2)c(OC)c1` [FLAVOKAWAIN B], the result with Huh-7 [1], with PC-3 and in the assay with HaCaT was Active.

Turning to `COc1cccc(/C=C/C(=O)c2c(OC)cc(OC)cc2OC)c1`, the Activity in the assay with HCT-116 [3] is listed as 4.5%; in the assay on HCT-116 [4] it was 1.2%; in the assay with HCT-116 [5], 20%; in the assay with HCT-116 [6], 0.6%. The result with Huh-7 [2] was Active.

Take `COc1cc(OC)c(C(=O)/C=C/c2ccccc2SC)c(OC)c1`: the outcome with Huh-7 [2] was Active.

With `COc1cc(O)c(C(=O)/C=C/c2ccccc2SC)c(OC)c1`, in the assay with Huh-7 [2], the result was Active.
